Reference: patent US20240252494A1, “Mechanotransduction Disruption Mediation in Skin Grafting Methods and Compositions for Use in Practicing the Same” (The Board of Trustees of the Leland Stanford Junior …, priority 2021, published 2024)

How the values were obtained:
porcine fibroblasts = test: 3D organotypic scar culture system (strained collagen scaffolds), scRNA-seq; assay type: cell-based; details: 10% strain, 10 µM FAKI
Source text: (§1) To determine whether the increased mechanical strain experienced by cells within the healing STSG would trigger the same fibroblast transcriptional states observed in vivo, we used our previously published three-dimensional (3D) organotypic scar culture system that permits the precise manipulation of strain (and therefore stress) without any other potential confounding factors (27, 98). Fibroblasts were first isolated from human skin and seeded within 3D collagen scaffolds (FIG. 8A). These scaffolds were then subjected to either 10% strain (Strain, S), 10% strain with FAK inhibition (Strain+FAKI, S+FAKI), or 0% strain (No Strain, NS) as a control (FIG. 8, A to C). Because it seemed likely that healing tissue would not be subjected to maximal strains (due to pain), we used a strain profile of 10% to represent the average wound strain environment.
We isolated and cultured dermal fibroblasts from both healthy human and porcine skin samples. Fibroblasts were isolated by mechanical and enzymatic digestion and cultured under standard conditions until passage 3. […]
We used a suture to paint nine Titanium(IV) oxide dots (Sigma-Aldrich 248576) on the surface of the central region of the gel to track and quantify the imposed strains. […]

porcine STSG cells = test: scRNA-seq of porcine STSG tissue; assay type: in vivo, red Duroc pigs; details: for number of DEGs between untreated STSG and STSG treated with FAKI: POD7
Description: We obtained a 1 cm^2 tissue from the center of our STSG groups or unwounded skin. The tissue was thoroughly cut into small 1 mm^2 pieces using a scalpel before then being carefully minced with fine scissors. To maximize cell capture for scRNA-seq, diligent care was made to cut the tissue into a fine tissue paste consistency. An increased enzyme concentration and volume of 30 ml of 1 mg/mL Liberase (Sigma-Aldrich 5401127001) in PBS were used to fully break down the dense, fibrotic porcine extracellular matrix. The cell-digest suspensions were constantly agitated (rotated) for a total of 2 hours at 37° C. Tissue solution was subjected to maximum speed vortex mixer (VWR) for 30 seconds before being placed in the oven, after 1 hour, and again after total of 2 hours to physically disrupt any tissue that had clumped together and maximize the tissue surface area exposed to enzymatic digestion at all times.
The tissue solution was filtered through a 100 μm Nylon cell filter (Fisher-Scientific 08-771-19) into a new conical tube, and 20 mL of 10% FBS DMEM was added through the filter to quench the enzymatic reaction and release any cells trapped within the filter, maximizing downstream cell yield. Solutions were spun at 350×g for 5 min at 4° C. in a centrifuge, supernatant was aspirated, and cells were then resuspended in 20 mL 10% FBS DMEM and passed through a 70 μm Nylon cell filter. A 20 mL solution of 10% FBS in PBS (FACS Buffer) was added through the filter to wash the remaining cells.
This cellular suspension was then resuspended in a concentrated solution and submitted for droplet-based microfluidic single cell RNA sequencing (scRNA-seq) at the Stanford Functional Genomics Facility (SFGF) using the 10× Chromium Single Cell platform (Single Cell 3′ v3, 10× Genomics, USA). The cell suspension, reverse transcription master mix, and partitioning oil was loaded onto a single cell chip, processed on the Chromium Controller, and reverse transcription was performed at 53° C. for 45 min. cDNA was amplified for 12 cycles total (BioRad C1000 Touch thermocycler) with cDNA size selected using SpriSelect beads (Beckman Coulter, USA) and a 3:5 ratio of SpriSelect reagent volume to sample volume. cDNA was analyzed on an Agilent Bioanalyzer High Sensitivity DNA chip for qualitative control, fragmented for 5 min at 32° C., followed by end repair and A-tailing at 65° C. for 30 min, and then double-sided size selected with SpriSelect. Sequencing adaptors were ligated to the cDNA at 20° C. for 15 min. cDNA was amplified using a sample-specific index oligo as primer, followed by another round of double-sided size selection. Final libraries were analyzed on an Agilent Bioanalyzer High Sensitivity DNA chip for qualitative control purposes. cDNA libraries were sequenced on a HiSeq 4000 Illumina platform aiming for 50,000 reads per cell.
Base calls were converted to reads using the Cell Ranger (10× Genomics; version 3.1) implementation of mkfastq and then aligned against our custom pig transcriptome using Cell Ranger's count function with SC3Pv3 chemistry and 5,000 expected cells per sample (51). Cell barcodes were filtered for high quality based on an optimized threshold of having at least 200 unique transcripts profiled, less than 10,000 total transcripts, and less than 10% of their transcriptome of mitochondrial origin (114).
Unique molecular identifiers (UMIs) from each cell barcode were retained for all downstream analysis. Raw UMI counts were normalized with a scale factor of 10,000 UMIs per cell and subsequently natural log transformed with a pseudocount of 1 using the R package Seurat (version 3.1.1) (52). Highly variable genes were identified, and cells were scaled by regression to the fraction of mitochondrial transcripts. Aggregated data was then evaluated using uniform manifold approximation and projection (UMAP) analysis over the first 15 principal components (115). […]

human fibroblasts = test: 3D organotypic scar culture system (strained collagen scaffolds), immunofluorescent staining; assay type: cell-based; details: 10% strain, 48 hours, 10 µM FAKI, vs strained fibroblasts
Source text: as §1
We isolated and cultured dermal fibroblasts from both healthy human and porcine skin samples. Fibroblasts were isolated by mechanical and enzymatic digestion and cultured under standard conditions until passage 3. Following our previously published protocols (98), we used the primary fibroblasts to create fibroblast-populated collagen hydrogels with a concentration of 200 k cells/mL and 2 mg/mL collagen (PureCol, Advanced Biomatrix 5005). In brief, collagen scaffolds were formulated in a cruciform shape with sponges in the arms and cultured in petri dishes on top of a layer (˜0.5 cm) of cured polydimethylsiloxane (PDMS; Sylgard 184 Silicone Elastomer Kit; Dow Corning). Pins were pushed through the sponges in the hydrogel cruciform arms to constrain the scaffolds during an initial pre-culture period (24h). Then, we subjected the scaffolds to either 0% strain (no strain) or 10% equibiaxial strain (either with or without FAKI) for an additional 48 hours. Strained but untreated cells were given 10 μL DMSO in 20 mL culture media, while strained and treated cells were administered 10 μL of 20 mM FAKI in DMSO in 20 mL culture media to achieve a final concentration of 10 µM FAKI.
We used a suture to paint nine Titanium(IV) oxide dots (Sigma-Aldrich 248576) on the surface of the central region of the gel to track and quantify the imposed strains. We used a digital camera to image the markers before and after strain. Strain was imposed by removing the pins, manually extending the hydrogel cruciform arms, and pushing the pins back through the arms to hold the scaffold in a new, extended position. Photographs of the marker positions were used to compute a single homogenous deformation gradient tensor F that provided the least-squares best fit mapping of the 9 marker positions from the undeformed to deformed positions by solving the overdetermined matrix equation: […]

tumor growth = details: in vivo; cited from earlier work
[1] = test system: full-thickness excisional wounds with STSG; test: Scar contracture analysis in porcine STSG model; assay type: in vivo, red Duroc pigs
Source text: (§2) STSG were not disturbed during the first 3 days.
(§3) After three weeks, dressings (and hydrogels) were changed twice per week until month 3. STSG were no longer bolster dressed and instead a conventional dressing was used (Telfa+Tegaderm). Each STSG within the animal was biopsied for histological and molecular evaluation at the end of the study.
STSG were monitored photographically at each dressing change. Each image was taken with a ruler or standard measurement device to standardize measurements. Scar areas were traced over time in ImageJ. Contracture was measured as change in scar area, normalized to the area of the STSG during the first dressing change. Two independent evaluators measured scar area, and the resultant scar area was the average of the two measurements.

[2] = test system: full-thickness excisional wounds with STSG; test: Histological analysis of collagen architecture of porcine STSG; assay type: in vivo, red Duroc pigs
Description: as §2
No patient identifying information was retained with the samples.
Masson's Trichrome staining and Picrosirius Red staining were performed, and images were captured with a Leica DM5000 B upright microscope. For Picrosirius Red, polarized light microscopy was used to obtain 40× magnification images and analysis of fiber alignment was performed using CurveAlign (109) and MatFiber (98, 110). The strength of alignment ranges from a value of 0 (completely random fiber alignment) to 1 (completely aligned fibers). Quantification of individual collagen fiber parameters (fiber length, width) was performed using CT-FIRE (http://loci.wisc.edu/software/ctfire) (109, 113).

[3] = test system: full-thickness excisional wounds with STSG; test: Cutometer viscoelastic analysis of STSG biomechanical properties; assay type: in vivo, red Duroc pigs; details: vs untreated STSG; P<0.05
Source text: as §2, §3
A cutometer (Dual MPA 580, Courage+Khazaka Electronic) was used to evaluate the firmness and elasticity of the healing tissue and unwounded skin. Cutometer assessment is one of the most common instruments to measure viscoelasticity in human patients (111, 112), measuring the vertical deformation of the skin surface by applying negative pressure (suction) through a small circular diameter (8 mm probe). Deformation (suction) for two seconds followed by two seconds of relaxation (no suction) was applied three times and averaged. The firmness 0 was measured as the amplitude at the end of the suction phase (RO metric) and normalized against the values of STSG treated with blank hydrogels (111). Increased deformation to a consistent negative pressure corresponds to less firm tissue, more similar to unwounded skin.

[4] = POD90, regenerative lineages 1 and 2

CN(c1ncccc1CNc1nc(Nc2ccc3c(c2)CC(=O)N3)ncc1C(F)(F)F)S(C)(=O)=O [FAKI]
APOE, EGR1 and PRDX1 expression (porcine fibroblasts): upregulation | pro-fibrotic responses (CXCL14, THBS2, COL1A1 expression) (porcine fibroblasts): abrogated | number of DEGs between untreated STSG and STSG treated with FAKI (porcine STSG cells; all other cell types): < 75 | number of DEGs between untreated STSG and STSG treated with FAKI (porcine STSG cells; fibroblasts): about 50 | number of DEGs between untreated STSG and STSG treated with FAKI (porcine STSG cells; monocyte-lineage cells (macrophages, monocytes, dendritic cells)): > 170 | number of DEGs between untreated STSG and STSG treated with FAKI (porcine STSG cells; neutrophils and lymphoid cells, each): around 100 | adipogenic gene sets and stem cell markers (CD34 and NT5E) in fibroblasts (porcine STSG cells; POD90, lineages 1 and 2): promoted | fibroblast transcriptional state (CellRank lineages) (porcine STSG cells; POD90, primarily lineages 1 and 2): transcriptional similarity to those from unwounded skin | APOE, CLEC3B, CD34, and PPARG unspliced pre-mRNA in fibroblasts (porcine STSG cells; [4]): upregulation | pro-fibrotic genes in fibroblasts (porcine STSG cells; [4]): abrogation | CD34 expression (human fibroblasts; P<0.0001): significantly increasing | APOE expression (human fibroblasts; P<0.01): significantly increasing | aSMA expression (human fibroblasts; P<0.01): significantly decreased | CXCL14 expression (human fibroblasts; P<0.05): significantly decreased | THBS4 expression (human fibroblasts; P<0.05): significantly decreased | tumor growth (tumor growth): blocks tumor growth | secretion of IP-10 (CXCL10) (porcine STSG tissue; POD 7, P<0.05): upregulated | number of infiltrating inflammatory cells (F4/80-positive macrophages) (porcine STSG tissue; early (POD 7, P<0.001) and late (POD 90, P<0.05) time points): significantly decreased | scar contracture at early time points ([1]; POD7, P=0.09, POD21, P<0.05): blocked scar contracture | scar contracture ([1]; POD28, change in scar area normalized to STSG area at first dressing change, untreated and blank hydrogel-treated STSGs over 70%): 30% | collagen fiber length and alignment ([2]; deep dermis, POD90, P<0.05): shorter and more randomly aligned | overall collagen deposition ([2]; superficial and deep dermis, by decreasing fiber widths and architectural complexity): decreased | STSG firmness and stiffness (cutometer deformation) [3]: less firm and less stiff
